Calls of active or inactive are those of the source. How the calls were made is not given here.
System: CCRIS mutagenicity, Ames/micronucleus/aberration tests
Assay: CCRIS mutagenicity studies

Measured: mutagenic call

COCCOCCOC
inactive: Test System: AMES SALMONELLA TYPHIMURIUM, Strain/Indicator: TA98, Metabolic Activation: HAMSTER, LIVER, S-9, AROCLOR 1254 (10%), Method: PREINCUBATION inactive; negative | Test System: AMES SALMONELLA TYPHIMURIUM, Strain/Indicator: TA98, Metabolic Activation: NONE, Method: PREINCUBATION inactive; negative | Test System: AMES SALMONELLA TYPHIMURIUM, Strain/Indicator: TA98, Metabolic Activation: RAT, LIVER, S-9, AROCLOR 1254 (10%), Method: PREINCUBATION inactive; negative | Test System: AMES SALMONELLA TYPHIMURIUM, Strain/Indicator: TA100, Metabolic Activation: HAMSTER, LIVER, S-9, AROCLOR 1254 (10%), Method: PREINCUBATION inactive; negative | Test System: AMES SALMONELLA TYPHIMURIUM, Strain/Indicator: TA100, Metabolic Activation: NONE, Method: PREINCUBATION inactive; negative | Test System: AMES SALMONELLA TYPHIMURIUM, Strain/Indicator: TA100, Metabolic Activation: RAT, LIVER, S-9, AROCLOR 1254 (10%), Method: PREINCUBATION inactive; negative | Test System: AMES SALMONELLA TYPHIMURIUM, Strain/Indicator: TA1535, Metabolic Activation: HAMSTER, LIVER, S-9, AROCLOR 1254 (10%), Method: PREINCUBATION inactive; negative | Test System: AMES SALMONELLA TYPHIMURIUM, Strain/Indicator: TA1535, Metabolic Activation: NONE, Method: PREINCUBATION inactive; negative | Test System: AMES SALMONELLA TYPHIMURIUM, Strain/Indicator: TA1535, Metabolic Activation: RAT, LIVER, S-9, AROCLOR 1254 (10%), Method: PREINCUBATION inactive; negative | Test System: AMES SALMONELLA TYPHIMURIUM, Strain/Indicator: TA1537, Metabolic Activation: HAMSTER, LIVER, S-9, AROCLOR 1254 (10%), Method: PREINCUBATION inactive; negative | Test System: AMES SALMONELLA TYPHIMURIUM, Strain/Indicator: TA1537, Metabolic Activation: NONE, Method: PREINCUBATION inactive; negative | Test System: AMES SALMONELLA TYPHIMURIUM, Strain/Indicator: TA1537, Metabolic Activation: RAT, LIVER, S-9, AROCLOR 1254 (10%), Method: PREINCUBATION inactive; negative

Cc1ccc2cc3c4c(ccc3c3c2c1CC3)C(O)C(O)C=C4 (stereo not drawn)
active: Test System: CHINESE HAMSTER V-79, Strain/Indicator: V-79/8-AZAGUANINE, Metabolic Activation: NONE, Method: STANDARD PLATE active; positive

Reference: PubChem BioAssay AID1259407 (Chemical Carcinogenesis Research Information System (CCRIS), 2018)
